Biological target: T1, mutant G12C K-RAS (Homo sapiens, UniProt P01116, G12C)
T1 construct: made in house; host or cells: E. coli BL21
Assay: covalent adduct formation (CAF) with mutant G12C K-RAS
Type: binding
Set-up: covalent adduct formation (CAF): unit not given here
Settings: Table 6; 10 uM, 1 h
Description: Embodiments disclosed herein are further illustrated by the following examples in Tables 1-4 and the Examples hereinbelow. The Tables indicate the compound number, structure, the observed mass spectral molecular weight peak, and covalent adduct formation (CAF) with a mutant G12C K-RAS after 60 minutes at a concentration of 10 micromolar.

| SMILES | % CAF @ 10 uM, 1 h [%] |
| --- | --- |
| C=CC(=O)N1CCN(c2nc(=O)n3c4c(c(-c5c(O)cccc5F)c(Cl)cc24)OC[C@@H]3CN2CCOCC2)[C@@H](C)C1 [Example 195, (3S,10R)-7-((S)-4-acryloyl-2-methylpiperazin-1-yl)-9-chloro-10-(2-fluoro-6-hydroxyphenyl)-3-(morpholinomethyl)-2,3-dihydro-5H-[1,4]oxazino[2,3,4-ij]quinazolin-5-one] | 0 |
| C=CC(=O)N1C[C@H](C)N(c2nc(=O)n3c4c(c(-c5ccccc5C(F)(F)F)c(Cl)cc24)OCC3)C[C@H]1C [Example 197, 7-((2S,5R)-4-acryloyl-2,5-dimethylpiperazin-1-yl)-9-chloro-10-(2-(trifluoromethyl)phenyl)-2,3-dihydro-5H-[1,4]oxazino[2,3,4-ij]quinazolin-5-one] | 0 |
| C=CC(=O)N1CCN(c2nc(=O)n3c4c(c(-c5c(O)cccc5F)c(Cl)cc24)OC[C@H]3CN2CCOCC2)[C@@H](C)C1 [Example 198, (3R,10S)-7-((S)-4-acryloyl-2-methvlpiperazin-1-yl)-9-chloro-10-(2-fluoro-6-hydroxyphenyl)-3-(morpholinomethyl)-2,3-dihydro-5H-[1,4]oxazino[2,3,4-ij]quinazolin-5-one] | 100 |
| C=CC(=O)N1CCN(c2nc(=O)n3c4c(c(-c5c(O)cccc5F)c(Cl)cc24)OC[C@H]3CN2CCOCC2)[C@@H](C)C1 [Example 199, (3R,10R)-7-((S)-4-aciyloyl-2-methylpiperazin-1-yl)-9-chloro-10-(2-fluoro-6-hydroxyphenyl)-3-(morpholinomethyl)-2,3-dihydro-5H-[1,4]oxazino[2,3,4-ij]quinazolin-5-one] | 0 |
| C=CC(=O)N1C[C@H](C)N(c2nc(=O)n3c4c(c(-c5c(F)cccc5C(F)F)ccc24)OCC3)C[C@H]1C [Example 200, 7-((2S,5R)-4-acryloyl-2,5-dimethylpiperazin-1-yl)-10-(2-(difluoromethyl)-6-fluorophenyl)-2,3-dihydro-5H-[1,4]oxazino[2,3,4-ij]quinazolin-5-one] | 0 |
| C=CC(=O)N1C[C@H](C)N(c2nc(=O)n3c4c(c(-c5c(F)ccc6[nH]cnc56)ccc24)OCC3)C[C@H]1C [Example 201, 7-((2S,5R)-4-acryloyl-2,5-dimethylpiperazin-1-yl)-10-(5-fluoro-1H-benzo[d]imidazol-4-yl)-2,3-dihydro-5H-[1,4]oxazino[2,3,4-ij]quinazolin-5-one] | 0 |
| C=CC(=O)N1C[C@H](C)N(c2nc(=O)n3c4c(c(-c5c(C)ccc6[nH]nnc56)ccc24)OCC3)C[C@H]1C [Example 219, 7-((2S,5R)-4-acryloyl-2,5-dimethylpiperazin-1-yl)-10-(5-methyl-1H-benzo[d][1,2,3]triazol-4-yl)-2,3-dihydro-5H-[1,4]oxazino[2,3,4-ij]quinazolin-5-one] | 0 |
| C=CC(=O)N1C[C@H](C)N(c2nc(=O)n3c4c(c(-c5c(O)cccc5F)c(Cl)cc24)OC[C@@H]3CN2CCC(F)(F)C2)C[C@H]1C [Example 220, (3S,10R)-7-((2S,5R)-4-acryloyl-2,5-dimethylpiperazin-1-yl)-9-chloro-3-((3,3-difluoropyrrolidin-1-yl)methyl)-10-(2-fluoro-6-hydroxyphenyl)-2,3-dihydro-5H-[1,4]oxazino[2,3,4-ij]quinazolin-5-one] | 0 |
| C=CC(=O)N1C[C@H](C)N(c2nc(=O)n3c4c(c(-c5c(F)ccc6[nH]nnc56)ccc24)OCC3)C[C@H]1C [Example 223, 7-((2S,5R)-4-acryloyl-2,5-dimethylpiperazin-1-yl)-10-(5-fluoro-1H-benzo[d][1,2,3]triazol-4-yl)-2,3-dihydro-5H-[1,4]oxazino[2,3,4-ij]quinazolin-5-one] | 0 |
| C=CC(=O)N1C[C@H](C)N(c2nc(=O)n3c4c(c(-c5c(F)ccc6cc[nH]c(=O)c56)ccc24)OCC3)C[C@H]1C [Example 224, 7-((2S,5R)-4-acryloyl-2,5-dimethylpiperazin-1-yl)-10-(7-fluoro-1-oxo-1,2-dihydroisoquinolin-8-yl)-2,3-dihydro-5H-[1,4]oxazino[2,3,4-ij]quinazolin-5-one] | 0 |
| C=CC(=O)N1C[C@H](C)N(c2nc(=O)n3c4c(c(-c5c(F)ccc6c5C(=O)NC6)ccc24)OCC3)C[C@H]1C [Example 231, 7-((2S,5R)-4-acryloyl-2,5-dimethylpiperazin-1-yl)-10-(5-fluoro-3-oxoisoindolin-4-yl)-2,3-dihydro-5H-[1,4]oxazino[2,3,4-ij]quinazolin-5-one] | 0 |
| C=CC(=O)N1C[C@H](C)N(c2nc(=O)n3c4c(c(-c5c(C)ccc6[nH]ncc56)c(Cl)cc24)OC[C@@H]3CCCN2C3CCC2COC3)C[C@H]1C [Example 281, (3S,10S)-3-(3-(3-oxa-8-azabicyclo[3.2.1]octan-8-yl)propyl)-7-((2S,5R)-4-acryloyl-2,5-dimethylpiperazin-1-yl)-9-chloro-10-(5-methyl-1H-indazol-4-yl)-2,3-dihydro-5H-[1,4]oxazino [2,3,4-ij] quinazolin-5-one] | 0 |
| C=CC(=O)N1C[C@H](C)N(c2nc(=O)n3c4c(c(-c5ccc(F)cc5F)c(Cl)cc24)OC[C@H]3CCCN2C3CCC2CN(C)C3)C[C@H]1C [Example 321, (3R)-7-((2S,5R)-4-acryloyl-2,5-dimethylpiperazin-1-yl)-9-chloro-10-(2,4-difluorophenyl)-3-(3-(3-methyl-3,8-diazabicyclo[3.2.1]octan-8-yl)propyl)-2,3-dihydro-5H-[1,4]oxazino [2,3,4-ij] quinazolin-5-one] | 71.2 |
| C=CC(=O)N1C[C@H](C)N(c2nc(=O)n3c4c(c(-c5c(C)ccc6[nH]ncc56)c(Cl)cc24)OC[C@H]3CCCN2C[C@@H]3C[C@H]2CO3)C[C@H]1C [Example 325, (3R,10S)-3-(3-((1S,4S)-2-oxa-5-azabicyclo[2.2.1]heptan-5-yl)propyl)-7-((2S,5R)-4-acryloyl-2,5-dimethylpiperazin-1-yl)-9-chloro-10-(5-methyl-1H-indazol-4-yl)-2,3-dihydro-5H-[1,4]oxazino [2,3,4-ij] quinazolin-5-one] | 0 |

Same assay, conditions: Table 7; 10 micromolar, after 60 minutes

| SMILES | covalent adduct formation (CAF) |
| --- | --- |
| C=CC(=O)N1CCN(c2nc(=O)n3c4c(c(-c5ccc(F)cc5F)c(Cl)cc24)SC[C@H]3C)[C@@H](C)C1 [Example 99, (3R)-7-((S)-4-acryloyl-2-methylpiperazin-1-yl)-9-chloro-10-(2,4-difluorophenyl)-3-methyl-2H-[1,4]thiazino[2,3,4-ij]quinazolin-5(3H)-one] | 87.2 |
| C=CC(=O)N1CCN(c2nc(=O)n3c4c(c(-c5ccc(F)cc5F)c(Cl)cc24)SC[C@H]3COC)[C@@H](C)C1 [Example 130, (3R)-7-((S)-4-acryloyl-2-methylpiperazin-1-yl)-9-chloro-10-(2,4-difluorophenyl)-3-(methoxymethyl)-2,3-dihydro-5H-[1,4]thiazino[2,3,4-ij]quinazolin-5-one] | 94.5 |
| C=CC(=O)N1CCN(c2nc(=O)n3c4c(c(-c5c(F)cc(F)cc5F)c(Cl)cc24)SC[C@H]3COC)[C@@H](C)C1 [Example 137, (R)-7-((S)-4-acryloyl-2-methylpiperazin-1-yl)-9-chloro-3-(methoxymethyl)-10-(2,4,6-trifluorophenyl)-2,3-dihydro-5H-[1,4]thiazino[2,3,4-ij]quinazolin-5-one] | 86.8 |
| C=CC(=O)N1CCN(c2nc(=O)n3c4c(c(-c5c(F)cc(F)cc5F)c(Cl)cc24)SC[C@H]3CCCN2C[C@@H]3C[C@H]2CO3)[C@@H](C)C1 [Example 339, (R)-3-(3-((1S,4S)-2-oxa-5-azabicyclo-[2.2.1]heptan-5-yl)-propyl)-7-((S)-4-acryloyl-2-methyl-piperazin-1-yl)-9-chloro-10-(2,4,6-trifluorophenyl)-2H-[1,4]thiazino[2,3,4-ij]-quinazolin-5(3H)-one] | 96.6 |
| C=CC(=O)N1CCN(c2nc(=O)n3c4c(c(-c5c(F)cc(F)cc5F)c(Cl)cc24)SC[C@@H]3CCCN2C[C@@H]3C[C@H]2CO3)[C@@H](C)C1 [Example 340, (S)-3-(3-((1S,4S)-2-oxa-5-azabicyclo-[2.2.1]heptan-5-yl)-propyl)-7-((S)-4-acryloyl-2-methyl-piperazin-1-yl)-9-chloro-10-(2,4,6-trifluorophenyl)-2H-[1,4]thiazino[2,3,4-ij]-quinazolin-5(3H)-one] | 96.9 |
| C=CC(=O)N1CCN(c2nc(=O)n3c4c(c(-c5ccc(F)cc5F)c(Cl)cc24)SC[C@H]3CCCN2C[C@@H]3C[C@H]2CO3)[C@@H](C)C1 [Example 341, (3R)-3-(3-((1S,4S)-2-oxa-5-azabicyclo[2.2.1]heptan-5-yl)propyl)-7-((S)-4-acryloyl-2-methylpiperazin-1-yl)-9-chloro-10-(2,4-difluorophenyl)-2H-[1,4]thiazino[2,3,4-ij]quinazolin-5 (3H)-one] | 96.5 |
| C=CC(=O)N1CCN(c2nc(=O)n3c4c(c(-c5ccc(F)cc5F)c(Cl)cc24)SC[C@@H]3CCCN2C[C@@H]3C[C@H]2CO3)[C@@H](C)C1 [Example 342, (3S)-3-(3-((1S,4S)-2-oxa-5-azabicyclo [2.2.1]heptan-5-yl)-propyl)-7-((S)-4-acryloyl-2-methyl-piperazin-1-yl)-9-chloro-10-(2,4-difluorophenyl)-2H-[1,4]thiazino[2,3,4-ij]-quinazolin-5(3H)-one] | 94.7 |
| C=CC(=O)N1CCN(c2nc(=O)n3c4c(c(-c5c(F)cc(F)cc5F)c(Cl)cc24)SC[C@@H]3CC2CCN(C)CC2)[C@@H](C)C1 [Example 343, (S)-7-((S)-4-acryloyl-2-methylpiperazin-1-yl)-9-chloro-3-((1-methylpiperidin-4-yl)-methyl)-10-(2,4,6-trifluorophenyl)-2H-[1,4]thiazino[2,3,4-ij]-quinazolin-5(3H)-one] | 96.7 |
